Reference: US20030086900A1, “Method of treatment using ligand-immunogen conjugates” (priority 2001, published 2003)

Tested on: M109 cells
Experiment: Survival of mice with M109 lung tumor implants, folate-MDP therapy
Assay type: in vivo
Details: female Balb/c mice, M109 cells i.p.; folate-MDP 15 nmoles/kg, IL-2 5,000 IU/dose, IFN-α 25,000 U/dose; injections on days 7, 8, 9, 11, 14
Experimental: Female Balb/c mice were injected on day 0 with 5×10^5 M109 cells, a syngeneic lung cancer cell line that expresses high levels of the folate receptor. In an effort to reduce the time required to obtain long-term survival data, the tumor cells were implanted intraperitoneally close to the liver. Cancer loci were then allowed to attach and grow. The animals were then injected with PBS (control) or were co-injected with folate-muramyl dipeptide (MDP) (15 nmoles/kg), IL-2 (5,000 IU/dose), and IFN-α (25,000 U/dose) on days 7, 8, 9, 11, and 14 after tumor cell implantation. Folate was conjugated to MDP via a gamma carboxyl-linked ethylene diamine bridge. Additional animals were injected with 80 nmoles/kg MDP, 15 nmoles/kg folate-MDP, or 80 nmoles/kg MDP and IL-2 and IFN-α at the concentrations specified above. The efficacy of this immunotherapy was evaluated by monitoring survival as a function of time of folate-MDP treated mice compared to control animals.

folate-muramyl dipeptide [folate-MDP]
effect on long-term survival of tumor-bearing mice: negligible effect
